The target of one experiment is T1, human MAO-A (Homo sapiens, UniProt P21397).
T1 construct: expressed in transfected cells; host or cells: EBNA cells (transient transfection); membranes by centrifugation at 45,000 x g
T1 sequence (P21397 1-527): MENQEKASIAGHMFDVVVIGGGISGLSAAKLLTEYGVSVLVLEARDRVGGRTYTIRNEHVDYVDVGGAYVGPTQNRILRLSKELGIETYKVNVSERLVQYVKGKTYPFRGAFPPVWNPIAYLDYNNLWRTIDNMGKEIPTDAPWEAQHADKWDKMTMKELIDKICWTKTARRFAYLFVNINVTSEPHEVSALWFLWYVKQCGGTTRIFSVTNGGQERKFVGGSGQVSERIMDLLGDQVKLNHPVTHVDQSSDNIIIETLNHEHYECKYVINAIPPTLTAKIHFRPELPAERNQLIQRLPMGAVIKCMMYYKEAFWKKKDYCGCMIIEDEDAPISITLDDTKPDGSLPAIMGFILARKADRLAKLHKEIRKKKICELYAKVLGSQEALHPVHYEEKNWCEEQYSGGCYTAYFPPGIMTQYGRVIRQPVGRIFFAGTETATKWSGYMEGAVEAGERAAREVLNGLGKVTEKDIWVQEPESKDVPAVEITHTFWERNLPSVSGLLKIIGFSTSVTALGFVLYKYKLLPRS
Description: MAO-A enzymatic activity, spectrophotometric assay (Amplex Red, tyramine) on membranes of transfected EBNA cells. The following applies: heading: MAO-A IC50, substrate tyramine, 30 min preincubation at 37° C., pH 7.4. Type of experiment: biochemical. As for the experimental part: (§1) The pharmacological activity of the compounds was tested using the following method. The cDNAs encoding human MAO-A and MAO-B were transiently transfected into EBNA cells using the procedure described by Schlaeger and Christensen [Transient Gene Expression in Mammalian Cells Grown in Serum-free Suspension Culture; Cytotechnology, 15:1-13 (1998)]. After transfection, cells were homogenised by means of a Polytron homogenizer in 20 mM Tris HCl buffer, pH 8.0, containing 0.5 mM EGTA and 0.5 mM phenylmethanesulfonyl fluoride. Cell membranes were obtained by centrifugation at 45,000×g and, after two rinsing step with 20 mM Tris HCl buffer, pH 8.0, containing 0.5 mM EGTA, membranes were eventually re-suspended in the above buffer and aliquots stored at −80° C. until use.
(§2) MAO-A and MAO-B enzymatic activity was assayed in 96-well-plates using a spectrophotometric assay adapted from the method described by Zhou and Panchuk-Voloshina [A One-Step Fluorometric Method for the Continuous Measurement of Monoamine Oxidase Activity, Analytical Biochemistry 253:169-174 (1997)]. Briefly, membrane aliquots were incubated in 0.1 M potassium phosphate buffer, pH 7.4, for 30 min at 37° C. with or without various concentrations of the compounds. After this period, the enzymatic reaction was started by the addition of the MAO substrate tyramine together with 1 U/ml horse-radish peroxidase (Roche Biochemicals) and 80 μM N-acetyl-3,7,-dihydroxyphenoxazine (Amplex Red, Molecular Probes). The samples were further incubated for 30 min at 37° C. in a final volume of 200 μl and absorbance was then determined at a wavelength of 570 nm using a SpectraMax plate reader (Molecular Devices). Background (non-specific) absorbance was determined in the presence of 10 μM clorgyline for MAO-A or 10 μM L-deprenyl for MAO-B.
(§3) IC50 values were determined from inhibition curves obtained using nine inhibitor concentrations in duplicate, by fitting data to a four parameter logistic equation using a computer program.

A further experiment addresses T2, human MAO-B (Homo sapiens, UniProt P27338).
T2 construct: expressed in transfected cells; host or cells: EBNA cells (transient transfection); membranes by centrifugation at 45,000 x g
T2 sequence (P27338 1-520): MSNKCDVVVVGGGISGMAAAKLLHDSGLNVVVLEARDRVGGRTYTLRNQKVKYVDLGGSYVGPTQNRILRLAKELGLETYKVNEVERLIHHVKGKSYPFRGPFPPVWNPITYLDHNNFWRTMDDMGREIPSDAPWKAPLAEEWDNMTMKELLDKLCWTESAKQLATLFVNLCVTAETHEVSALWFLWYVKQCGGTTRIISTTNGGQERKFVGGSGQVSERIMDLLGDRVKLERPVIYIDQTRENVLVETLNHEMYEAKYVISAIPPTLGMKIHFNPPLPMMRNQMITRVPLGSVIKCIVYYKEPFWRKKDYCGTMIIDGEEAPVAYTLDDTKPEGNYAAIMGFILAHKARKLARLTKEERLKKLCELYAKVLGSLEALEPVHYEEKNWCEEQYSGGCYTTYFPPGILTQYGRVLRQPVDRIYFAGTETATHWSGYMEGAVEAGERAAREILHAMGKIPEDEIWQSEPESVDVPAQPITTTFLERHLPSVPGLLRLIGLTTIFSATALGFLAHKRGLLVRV
Nature of the experiment: MAO-B enzymatic activity, spectrophotometric assay (Amplex Red, tyramine) on membranes of transfected EBNA cells. The following applies: substrate tyramine, 30 min preincubation at 37° C., pH 7.4. In kind it is biochemical. As for the experimental part:
as §1, §2, §3

One may read the IC50 as the concentration that gives 50% inhibition. On to `CC(=Cc1ccc(OCc2cccc(F)c2)cc1)C(N)=O` [Example 1, 3-[4-(3-Fluoro-benzyloxy)-phenyl]-2-methyl-acrylamide], for which the IC50 at human MAO-A was > 10000 nM; against human MAO-B it was 83 nM.

Take `CNC(=O)C(C)Cc1ccc(OCc2cccc(F)c2)cc1` (stereo not drawn) [Example 4, 3-[4-(3-Fluoro-benzyloxy)-phenyl]-2,N-dimethyl-propionamide]: the 50% inhibitory concentration (IC50) was > 10000 nM against human MAO-A and 29 nM against human MAO-B.

For the compound `NC(=O)C#Cc1ccc(OCc2cccc(F)c2)cc1` [Example 5, 3-[4-(3-Fluoro-benzyloxy)-phenyl]-propynoic acid amide], the values for the IC50 against human MAO-A and against human MAO-B were 5620 nM and 98 nM, respectively.

For the origin of these results see patent US6900354B2, “3-phenyl-propionamido, 3-phenyl-acrylamido and 3-phenyl-propynamido derivatives” (Hoffman-La Roche Inc., priority 2002, dated 2005).
